We go through 124 compounds from a melting point compilation (Tetko et al.).

In turn, `CC(=O)NC1(C(N)=NO)CCN(C)CC1` gave a melting point of 202 to 204 °C.

In turn, `Cc1cc(Br)cc2c(=O)cc[nH]c12` displayed a melting point of 249 to 251 °C.

`NNC(=O)Nc1ccc(C(=O)O)cc1` yielded a melting point of 192 to 194 °C.

Turning to `Cc1cccc(C)c1C=O`, the melting point lay within 27 to 30 °C.

As to `Cc1ccc(N)c(OCCN(C)C)c1`, the melting point lay within 51 to 53 °C.

`CCn1ccnc1C(O)CCc1ccccc1` (centres undefined) registered a melting point of 77 to 79 °C.

`N#Cc1cc(Cl)nc2ccc(Cl)cc12` registered a melting point of 168 to 170 °C.

Compound `O=C(O)C1CCN1Cc1ccccc1` (centres undefined) displayed a melting point of 176 to 178 °C.

Consider `CSc1noc(N)n1`, for which the melting point lay within 100 to 102 °C.

With `Cc1cccc(C)c1Nc1nnc(S)s1`, the melting point is 266 to 268 °C.

In the case of `CS(=O)(=O)c1cccc(N)c1`, the melting point lay in the range of 49 to 51 °C.

On to `Cc1ccc(C(=O)O)cc1NCc1ccc(Br)o1`, for which the melting point is 125 to 127 °C.

In turn, `O=Cc1ccc(-c2ccc(Cl)c(Cl)c2)s1` came in with a melting point of 126 to 128 °C.

In turn, `Cc1cccc(NS(=O)(=O)c2ccc(C)c(N)c2)c1` returned a melting point of 95 to 97 °C.

Turning to `CCCC(N)c1nnn[nH]1` (centres undefined), the melting point fell in the range of 277 to 279 °C.

The compound `NC(=O)CN1CC(O)CC1=O` (centres undefined) displayed a melting point of 133 to 135 °C.

`COc1ccc(C2C(C(=O)O)CCC(=O)N2C)cc1` (centres undefined): the melting point is 213 to 215 °C.

`CCOc1ccc(-c2nn(-c3ccccc3)cc2C=O)cc1Cl` gave a melting point of 100 to 102 °C.

`O=C(O)c1cc[nH]c1` came in with a melting point of 129 to 131 °C.

Regarding `CC1CCCN(S(=O)(=O)c2ccc(N)cc2)C1` (centres undefined), the melting point fell in the range of 129 to 131 °C.

Compound `NC(=NO)c1cccnc1Oc1ccccc1` registered a melting point of 152 to 154 °C.

For the compound `CCN(CC)S(=O)(=O)c1ccc(NC(=O)CCl)cc1`, the melting point is 103 to 105 °C.

`CC(NC(=O)CC(F)(F)F)C(=O)O` (centres undefined) displayed a melting point of 105 to 107 °C.

Take `NS(=O)(=O)c1ccc(NC(=O)CCl)cc1`: the melting point was 156 to 158 °C.

In turn, `Nc1ccc(OCC2CCOCC2)cc1` showed a melting point of 108 to 110 °C.

`O=C(O)C1CC(=O)N(c2ccc(F)cc2)C1` (centres undefined): the melting point is 121 to 123 °C.

Turning to `CCOC(=O)Cc1cc(=O)oc2ccc(O)cc12`, the melting point lay in the range of 173 to 175 °C.

`COC(=O)C(Br)CN1C(=O)c2ccccc2C1=O` (centres undefined) yielded a melting point of 99 to 101 °C.

`Cn1cncc1C#N`: the melting point was 48 to 50 °C.

In turn, `COC(=O)c1ncon1` gave a melting point of 34 to 36 °C.

`O=[N+]([O-])c1cc(F)ccc1S(=O)(=O)Cl` showed a melting point of 40 to 44 °C.

Compound `CCOC(=O)c1nc(-c2ccccc2)oc1N` yielded a melting point of 181 to 183 °C.

As to `COc1ccccc1C1(C(=O)O)CCC1`, the melting point lay within 149 to 151 °C.

`O=C(O)Cc1coc2cc(F)ccc12` displayed a melting point of 103 to 105 °C.

Consider `CS(=O)(=O)c1c(N)cccc1Cl`, for which the melting point is 97 to 99 °C.

On to `Cc1nc(CCCC(=O)O)cs1`, for which the melting point was in the range of 66 to 68 °C.

Take `Cc1[nH]c2ccccc2c1CC#N`: the melting point fell in the range of 79 to 81 °C.

The compound `COC(=O)C(C)Nc1ccc([N+](=O)[O-])cc1` (centres undefined) had a melting point of 99 to 101 °C.

The compound `Cc1ccc(Cn2ncc3c(C(=O)O)cc(C)nc32)cc1` returned a melting point of 190 to 192 °C.

In turn, `O=C(O)CCCS(=O)(=O)c1ccc(Br)cc1` had a melting point of 117 to 119 °C.

In turn, `COC(=O)c1nc(-c2ccccc2)oc1N` had a melting point of 193 to 195 °C.

Consider `O=C(O)CCCN1C(=O)CSC1=S`, for which the melting point lay in the range of 124 to 126 °C.

Regarding `O=C(O)c1ccc(-n2cnnn2)cc1Cl`, the melting point was in the range of 179 to 181 °C.

Turning to `CC(=O)c1ccc(NC(=O)NC2CC2)cc1`, the melting point lay in the range of 161 to 163 °C.

In the case of `O=C(O)c1cn(Cc2cccnc2)nn1`, the melting point fell in the range of 206 to 208 °C.

Turning to `O=Cc1cn(-c2ccccc2)nc1-c1cc2ccccc2oc1=O`, the melting point is 223 to 225 °C.

The compound `CC(C)c1nnnn1CC(=O)O` yielded a melting point of 179 to 181 °C.

Take `O=C(O)c1cc(C(F)(F)F)ccc1SC1CCCC1`: the melting point lay in the range of 174 to 176 °C.

For `Nc1ccc(-c2c3c(=O)[nH][nH]c(=O)c3c3n2CCC3)cc1`, the melting point lay within 309 to 311 °C.

Compound `NCc1cccc(S(=O)(=O)N2CCCCC2)c1` showed a melting point of 67 to 69 °C.

`Cc1nn(C)cc1C=O` yielded a melting point of 46 to 48 °C.

The compound `O=C(O)c1sc2ccccc2c1CSc1ccccc1Cl` gave a melting point of 183 to 185 °C.

Take `CC(C)NC(N)=O`: the melting point was in the range of 154 to 156 °C.

Regarding `OC(O)c1nc(-c2ccccc2)no1`, the melting point lay within 103 to 105 °C.

`NNC(=O)CO` displayed a melting point of 90 to 92 °C.

In turn, `CON=C(C(=O)N[C@@H]1C(=O)N2C(C(=O)O)=C(CSc3nnnn3C)CS[C@H]12)c1csc(N)n1` came in with a melting point of 159 to 161 °C.

As for `NCCCNC(=O)c1cccc(Br)c1`, the melting point lay in the range of 52 to 54 °C.

As for `Nc1nnc2n1CCCC2`, the melting point was 270 to 272 °C.

Take `Cc1c(S(=O)(=O)Cl)sc2cc(Cl)ccc12`: the melting point lay in the range of 83 to 85 °C.

With `CC1=CC(=O)N(c2ccc(C(=O)O)cc2)C1=O`, the melting point lay in the range of 201 to 203 °C.

In turn, `CC(C)(C)c1ccc(C2(N)CCCC2)cc1` came in with a melting point of 120 to 122 °C.

Turning to `CC(C)(C)OC(=O)C(C#N)c1nccnc1Cl` (centres undefined), the melting point was in the range of 62 to 64 °C.

In turn, `COc1ccc(Sc2ccc(N)cc2)cc1` registered a melting point of 93 to 95 °C.

`N#Cc1ccc(C(=O)NN)cc1` showed a melting point of 195 to 197 °C.

Take `COc1ccc(Br)cc1CN1C(=O)CNC1=O`: the melting point fell in the range of 183 to 185 °C.

In turn, `NC(=O)CCN1C(=O)NC2(CCCC2)C1=O` gave a melting point of 150 to 152 °C.

Turning to `O=S(=O)(Cl)c1ccc2c(c1)CCCC2`, the melting point was in the range of 44 to 46 °C.

In the case of `O=C(O)CNC(=O)C1c2ccccc2C(=O)N1C1CC1` (centres undefined), the melting point is 242 to 244 °C.

Regarding `CCC1(C(=O)O)CCN(C(=O)OC(C)(C)C)C1` (centres undefined), the melting point is 94 to 96 °C.

Turning to `CC(C)n1ncc(C(=O)O)c1C1CC1`, the melting point is 99 to 101 °C.

In the case of `CC(C)c1cccc(C(=O)O)n1`, the melting point lay within 63 to 65 °C.

`O=C(O)c1cc(-c2ccccc2)cc(Cl)c1O`: the melting point was in the range of 202 to 204 °C.

`CN(C)N=Cc1cnn(C)c1` came in with a melting point of 70 to 72 °C.

`Cc1ccccc1C1(C(=O)O)CCCCC1`: the melting point lay within 162 to 164 °C.

Consider `CCN(CC)C(C(N)=O)c1ccccc1` (centres undefined), for which the melting point lay within 141 to 143 °C.

On to `NC(=O)CN1CC(C(=O)O)CC1=O` (centres undefined), for which the melting point lay in the range of 169 to 171 °C.

`Nc1cc(Cl)c(Cl)c(C(=O)O)c1` displayed a melting point of 199 to 201 °C.

`Nc1cc(N2CCCC2=O)ccc1Cl` yielded a melting point of 139 to 141 °C.

Turning to `O=C(O)CCOc1cccc([N+](=O)[O-])c1`, the melting point lay within 111 to 113 °C.

Compound `NC(=O)c1cncn1-c1ccccc1` gave a melting point of 182 to 184 °C.

`CCNC(=O)NCCCO` came in with a melting point of 53 to 55 °C.

Consider `COc1ccc(CC#N)cn1`, for which the melting point was in the range of 49 to 51 °C.

`NNC(=S)NCC(N)=O` yielded a melting point of 153 to 155 °C.

For `N#Cc1cccc(NC(=O)OCC(F)(F)F)c1`, the melting point fell in the range of 133 to 135 °C.

Compound `O=C(O)c1cc(F)cnc1Cl` registered a melting point of 143 to 144 °C.

As to `Nc1ccn(Cc2cccnc2)n1`, the melting point is 88 to 90 °C.

Compound `COc1ccccc1-c1nnc(N)[nH]1` had a melting point of 214 to 216 °C.

Turning to `Cn1cc(C=O)c(-c2ccc3c(c2)OCCCO3)n1`, the melting point lay in the range of 99 to 101 °C.

On to `Clc1ccnc(C2=NCCO2)c1`, for which the melting point is 73 to 75 °C.

In the case of `COC(=O)c1ncsc1SCc1ccccc1`, the melting point was in the range of 92 to 94 °C.

For `COCCOc1cccc(CC(=O)O)c1`, the melting point is 47 to 49 °C.

Take `Cc1cc(C)c(CBr)c(C)c1`: the melting point lay within 49 to 51 °C.

Compound `CNc1ccc(C)nn1` showed a melting point of 162 to 164 °C.

`O=C(O)CCCOc1cccnc1` displayed a melting point of 125 to 127 °C.

The compound `Nc1cc(F)c([N+](=O)[O-])cc1C(=O)O` had a melting point of 249 to 251 °C.

On to `CC(C)Cn1nc(C(=O)O)c2ccccc2c1=O`, for which the melting point fell in the range of 171 to 173 °C.

Compound `Cc1nc(-c2ccccc2)sc1CCl` returned a melting point of 84 to 86 °C.

In turn, `CCOc1cc(Cl)ccc1C#N` registered a melting point of 81 to 83 °C.

The compound `Cc1nc(Cl)nc(Cl)c1[N+](=O)[O-]` showed a melting point of 52 to 54 °C.

Consider `O=c1nc(CCl)[nH][nH]1`, for which the melting point fell in the range of 179 to 181 °C.

`N#CCc1c[nH]c2ncccc12` registered a melting point of 139 to 141 °C.

As for `O=C(O)Cc1csc(Cc2ccccc2)n1`, the melting point lay in the range of 128 to 130 °C.

In turn, `NC(=O)c1cc(CCO)c(C(F)(F)F)[nH]c1=O` displayed a melting point of 230 to 232 °C.

`COc1ccc(C(=O)O)c(I)c1` returned a melting point of 182 to 184 °C.

In the case of `Fc1ccc2ccc(Cl)nc2c1`, the melting point lay within 97 to 99 °C.

`CC(Cl)C(=O)Nc1ccc(OCc2ccccc2)cc1` (centres undefined) had a melting point of 141 to 145 °C.

Regarding `O=C(O)CCc1ccoc1`, the melting point was 63 to 65 °C.

Consider `COc1cc(C=O)ccc1OC(=O)c1ccc(F)cc1`, for which the melting point lay within 100 to 102 °C.

For `O=C1NC(=O)C(c2ccc(F)c(Br)c2)N1` (centres undefined), the melting point lay within 173 to 175 °C.

With `CCOC(=O)c1oc2c(Br)cccc2c1C`, the melting point lay within 68 to 70 °C.

For `CCCC(NC(C)=O)C(=O)O` (centres undefined), the melting point fell in the range of 114 to 116 °C.

Take `CCOC(=O)c1cc(Br)cc(S(N)(=O)=O)c1`: the melting point was in the range of 119 to 121 °C.

`CCn1c(S)nnc1-c1ccccc1OC` came in with a melting point of 171 to 173 °C.

As to `CC(Cl)C(=O)c1ccc(NS(C)(=O)=O)cc1` (centres undefined), the melting point lay within 189 to 192 °C.

`CC(C)C(=O)NC(C)C(=O)O` (centres undefined) yielded a melting point of 154 to 156 °C.

Consider `CC(=O)c1cnc2nncn2c1C`, for which the melting point lay within 192 to 193 °C.

`O=C(O)c1c(O)cnc2ccccc12` yielded a melting point of 199 to 201 °C.

Turning to `N#Cc1cc(F)ccc1N`, the melting point is 92 to 96 °C.

Turning to `CCOC(=O)/C(C#N)=C\Nc1ccc(C)cc1`, the melting point was in the range of 134 to 136 °C.

Turning to `COc1ccc(OC)c(C=NO)c1`, the melting point lay in the range of 94 to 96 °C.

In turn, `c1n[nH]cc1C1CCNCC1` came in with a melting point of 149 to 151 °C.

On to `Cc1nc(C)c(C(=O)O)o1`, for which the melting point was 219 to 221 °C.

Turning to `CC(=O)c1ccc(-c2ccncc2)cc1`, the melting point was in the range of 93 to 95 °C.

With `CCOC(=O)c1csc(CC#N)n1`, the melting point was 77 to 79 °C.
